Reference: ChEMBL document CHEMBL1649341, “Citrusosides A-D and furanocoumarins with cholinesterase inhibitory activity from the fruit peels of Citrus hystrix” (J Nat Prod, 2010)
Calls of active or inactive are those of the source. The calls are words filed in the database; no cut-off is given here.

Key:
Cholinesterase = Cholinesterase (Equus caballus, UniProt P81908); assay: Inhibition of horse serum BChE after 2 mins by Ellman's reaction
[1] = molecular target: Cholinesterase (Equus caballus) (UniProt P81908); assay: Inhibition of horse serum BChE at 65.1 uM after 2 mins by Ellman's reaction
[2] = molecular target: Cholinesterase (Equus caballus) (UniProt P81908); assay: Inhibition of horse serum BChE at 7.2 mM after 2 mins by Ellman's reaction
[3] = molecular target: Cholinesterase (Equus caballus) (UniProt P81908); assay: Inhibition of horse serum BChE at 14.8 mM after 2 mins by Ellman's reaction

Cholinesterase, sequence (P81908 whole entry): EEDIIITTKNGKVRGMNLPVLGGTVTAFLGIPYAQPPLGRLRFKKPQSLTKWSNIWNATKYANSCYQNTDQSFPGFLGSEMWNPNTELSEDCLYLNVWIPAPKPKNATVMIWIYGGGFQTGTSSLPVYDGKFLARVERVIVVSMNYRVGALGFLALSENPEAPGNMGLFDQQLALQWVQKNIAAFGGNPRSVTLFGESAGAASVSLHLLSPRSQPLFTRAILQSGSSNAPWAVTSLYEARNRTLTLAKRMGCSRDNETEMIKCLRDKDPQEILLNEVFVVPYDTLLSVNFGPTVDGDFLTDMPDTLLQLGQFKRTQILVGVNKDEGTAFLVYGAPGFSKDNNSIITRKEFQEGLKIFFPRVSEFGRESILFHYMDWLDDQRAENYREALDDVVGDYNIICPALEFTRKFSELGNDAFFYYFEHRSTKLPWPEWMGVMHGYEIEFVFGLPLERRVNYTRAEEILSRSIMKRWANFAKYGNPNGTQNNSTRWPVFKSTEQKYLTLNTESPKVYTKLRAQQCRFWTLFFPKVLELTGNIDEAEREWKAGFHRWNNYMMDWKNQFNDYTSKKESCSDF
Cholinesterase (Equus caballus), sequence (P81908 whole entry): as above

Structure (SMILES) | IC50 (Cholinesterase) | further results
CC(C)=CCOc1c2ccoc2cc2oc(=O)ccc12 [ISOIMPERATORIN] | 23.1 µM | 
C/C(=C\COc1c2ccoc2cc2oc(=O)ccc12)CC[C@@H](OC(=O)CC(C)(O)CC(=O)OC[C@H]1O[C@@H](OC(C)C)[C@H](O)[C@@H](O)[C@@H]1O)C(C)(C)O (stereo partly drawn) [CITRUSOSIDE B] | 339 µM | 
CC(C)(O)[C@H](O)COc1c2ccoc2cc2oc(=O)ccc12 |  | inhibition [1]: 24.6%
CC(C)=CCC[C@@H](C)C/C=C/C(=O)OC[C@H]1O[C@@H](OC(C)C)[C@H](O)[C@@H](O)[C@@H]1O [CITRUSOSIDE A] | 376 µM | 
C/C(=C\COc1c2ccoc2cc2oc(=O)ccc12)CC[C@@H](O)C(C)(C)O | 15.4 µM | 
CC(C)O[C@@H]1O[C@H](CO)[C@@H](O)[C@H](OC(=O)CC(C)(O)CC(=O)O[C@H](COc2c3ccoc3cc3oc(=O)ccc23)C(C)(C)O)[C@H]1O (stereo partly drawn) |  | inhibition [2]: inactive
CC(C)=CCC/C(C)=C/COc1c2ccoc2cc2oc(=O)ccc12 |  | inhibition [3]: inactive
COC(C)(C)[C@H](O)CC/C(C)=C/COc1c2ccoc2cc2oc(=O)ccc12 | 11.2 µM | 
